{"source": "paper PMC12499452", "about": "“The Multitarget Compound ZLY032 Achieves Treatment of Chronic Wounds” (Advanced Science, 2025)", "key": {"FFA1": {"target": "T1, FFA1 (Homo sapiens, UniProt O14842)", "T1 construct": "gene FFAR1; apparently endogenous in HEK293T cells (no transfection told); Western blot read-out", "T1 sequence (O14842 whole entry)": "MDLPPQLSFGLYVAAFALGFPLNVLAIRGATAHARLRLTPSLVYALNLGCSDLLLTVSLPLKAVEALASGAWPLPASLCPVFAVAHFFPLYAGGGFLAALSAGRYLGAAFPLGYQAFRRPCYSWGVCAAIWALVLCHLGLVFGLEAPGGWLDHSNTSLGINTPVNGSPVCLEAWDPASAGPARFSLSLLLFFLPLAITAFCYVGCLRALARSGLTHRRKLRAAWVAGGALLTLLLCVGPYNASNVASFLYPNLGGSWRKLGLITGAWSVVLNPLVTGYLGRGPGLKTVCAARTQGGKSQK", "test": "cellular thermal shift assay (CETSA), Western blot", "type": "cell-based", "conditions": "HEK293T cells"}, "PPARδ": {"target": "T2, PPARδ (Homo sapiens, UniProt Q03181)", "T2 construct": "gene PPARD; apparently endogenous in HEK293T cells (no transfection told); Western blot read-out", "T2 sequence (Q03181 1-441)": "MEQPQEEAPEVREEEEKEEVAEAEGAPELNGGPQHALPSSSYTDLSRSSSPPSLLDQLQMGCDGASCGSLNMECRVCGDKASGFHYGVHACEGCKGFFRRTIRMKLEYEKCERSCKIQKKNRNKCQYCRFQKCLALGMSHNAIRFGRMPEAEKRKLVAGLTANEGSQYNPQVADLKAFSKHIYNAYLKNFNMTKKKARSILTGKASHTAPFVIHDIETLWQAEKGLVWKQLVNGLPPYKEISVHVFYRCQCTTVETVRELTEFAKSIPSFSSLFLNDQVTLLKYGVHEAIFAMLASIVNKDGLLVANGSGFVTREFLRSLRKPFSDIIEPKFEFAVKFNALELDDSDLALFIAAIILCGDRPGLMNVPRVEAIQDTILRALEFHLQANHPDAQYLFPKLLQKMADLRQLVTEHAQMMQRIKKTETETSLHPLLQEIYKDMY", "test": "cellular thermal shift assay (CETSA), Western blot", "type": "cell-based", "conditions": "HEK293T cells"}, "ASAL (from S. aureus)": {"target": "T3, ASAL (from S. aureus) (Staphylococcus aureus, UniProt Q2FIB5)", "T3 construct": "gene argH; immobilised on CM5 chip", "T3 sequence (Q2FIB5 1-459)": "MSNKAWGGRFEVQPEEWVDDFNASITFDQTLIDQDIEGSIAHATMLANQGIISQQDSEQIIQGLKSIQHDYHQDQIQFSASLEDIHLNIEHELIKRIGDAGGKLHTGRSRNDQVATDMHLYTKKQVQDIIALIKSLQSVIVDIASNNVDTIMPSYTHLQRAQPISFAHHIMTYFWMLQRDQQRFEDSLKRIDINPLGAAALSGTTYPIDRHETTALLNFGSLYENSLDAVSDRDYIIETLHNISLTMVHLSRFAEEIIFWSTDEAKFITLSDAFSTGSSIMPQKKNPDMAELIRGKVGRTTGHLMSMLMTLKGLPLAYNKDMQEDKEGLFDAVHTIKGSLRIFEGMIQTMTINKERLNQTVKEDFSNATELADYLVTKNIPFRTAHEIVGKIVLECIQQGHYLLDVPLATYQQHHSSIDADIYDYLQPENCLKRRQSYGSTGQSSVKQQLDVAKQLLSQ", "test": "surface plasmon resonance (Biacore T200, CM5 chip, immobilised protein)", "type": "binding", "conditions": "read-out: affinity constant"}}}
{"smiles": "Cc1nc(-c2ccc(C(F)(F)F)cc2)sc1COc1ccc2c(c1)OC[C@H]2CC(=O)O", "note": "[ZLY032]", "values": [{"measurement": "cellular thermal shift assay (CETSA), Western blot", "setting": "FFA1", "value": "ZLY032 had direct binding ability with FFA1 and PPARδ (Figure S11, Supporting Information)"}, {"measurement": "cellular thermal shift assay (CETSA), Western blot", "setting": "PPARδ", "value": "ZLY032 had direct binding ability with FFA1 and PPARδ (Figure S11, Supporting Information)"}, {"measurement": "Kd", "setting": "ASAL (from S. aureus)", "value": 10.9, "unit": "µM"}]}
